According to ChEMBL document CHEMBL1141709, “Optimization of small molecule agonists of the thrombopoietin (Tpo) receptor derived from a benzo[a]carbazole hit scaffold” (Bioorg Med Chem Lett, 2008):

Columns and labels:
Thrombopoietin receptor = biological target: T1, Thrombopoietin receptor (Homo sapiens, UniProt P40238); test: Agonist activity at human thrombopoietin receptor expressed in mouse Ba/F3 cells by kinase activation based reporter gene assay; type: functional, cell-based, BaF3
T1 sequence (P40238 whole entry): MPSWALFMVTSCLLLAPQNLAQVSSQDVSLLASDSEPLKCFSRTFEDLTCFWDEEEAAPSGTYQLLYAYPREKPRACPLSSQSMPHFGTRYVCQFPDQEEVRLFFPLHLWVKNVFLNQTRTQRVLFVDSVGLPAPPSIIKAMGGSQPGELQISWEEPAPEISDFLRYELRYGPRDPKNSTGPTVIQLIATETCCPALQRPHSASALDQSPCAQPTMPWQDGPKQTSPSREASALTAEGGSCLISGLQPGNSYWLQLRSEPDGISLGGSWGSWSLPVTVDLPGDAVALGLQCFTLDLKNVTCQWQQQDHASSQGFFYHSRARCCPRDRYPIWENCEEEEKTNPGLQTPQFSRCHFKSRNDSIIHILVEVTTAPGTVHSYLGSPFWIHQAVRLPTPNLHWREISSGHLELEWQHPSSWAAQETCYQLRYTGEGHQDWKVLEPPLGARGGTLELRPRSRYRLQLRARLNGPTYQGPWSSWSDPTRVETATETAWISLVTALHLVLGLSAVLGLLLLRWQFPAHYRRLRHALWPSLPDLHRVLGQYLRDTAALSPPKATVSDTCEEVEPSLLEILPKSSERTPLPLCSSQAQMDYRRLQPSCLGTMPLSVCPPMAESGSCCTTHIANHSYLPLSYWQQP

[1] = biological target: T2, Thrombopoietin receptor (Homo sapiens) (UniProt P40238); test: Agonist activity at human thrombopoietin receptor expressed in mouse Ba/F3 cells by kinase activation based reporter gene assay relative to 30 ng/mL thrombopoietin; type: functional, cell-based; details: BaF3
T2 sequence (whole entry): T1 sequence (P40238 whole entry)

[2] = biological target: T2, Thrombopoietin receptor (Homo sapiens); test: Agonist activity at human thrombopoietin receptor expressed in mouse Ba/F3 cells in presence of 1 mM Zinc by kinase activation based reporter gene assay relative to 30 ng/mL thrombopoietin; type: functional, cell-based; details: BaF3
[3] = biological target: T2, Thrombopoietin receptor (Homo sapiens); test: Agonist activity at human thrombopoietin receptor expressed in mouse Ba/F3 cells in presence of 1 mM Zinc by kinase activation based reporter gene assay; type: functional, cell-based; details: BaF3
[4] = Thrombopoietic activity in human megakaryocytes assessed as induction of cell differentiation by CFU-mega assay; type: functional, cell-based

Row | EC50 (Thrombopoietin receptor) [nM] | Efficacy [1] [%] | Efficacy [2] [%] | EC50 [3] [nM] | EC50 [4] [nM] | Structure (SMILES)
1 | 26 | 144 |  |  |  | Cc1cc(-c2ccc3c4c([nH]c3c2F)-c2ccc(C(=O)O)cc2C4)ccc1F
2 | > 30000 | 0 |  |  |  | Cc1cc(-c2ccc3c4c([nH]c3c2F)-c2ccc(C(N)=O)cc2COC4=O)ccc1F
3 |  |  | 98 | 87 |  | CCCCc1ccc(-c2ccc3c4c([nH]c3c2F)-c2ccc(NC(=O)CO)cc2C4)cc1
4 | 21 | 110 |  |  |  | CCCCc1ccc(-c2ccc3c4c([nH]c3c2F)-c2ccc(NC(=O)C(=O)O)cc2C4)cc1
5 | 25 | 117 |  |  | 300 | CCCCc1ccc(-c2ccc3c4c([nH]c3c2F)-c2ccc(NC(C)=O)cc2C4)cc1
6 |  |  | 70 | 341 |  | CCCCc1ccc(-c2ccc3c4c([nH]c3c2F)-c2cc(N)c(C(=O)O)cc2C4)cc1
7 | 37 | 151 |  |  |  | CCCCc1ccc(-c2ccc3c4c([nH]c3c2F)-c2ccc(C(=O)O)cc2C4)cc1
8 | 277 | 105 |  |  |  | Cc1cc(-c2ccc3c4c([nH]c3c2F)-c2ccc(C(N)=O)cc2C4)ccc1F
9 |  |  | 128 | 124 |  | CCCCc1ccc(-c2ccc3c4c([nH]c3c2F)-c2ccc(NC(N)=O)cc2C4)cc1
10 | 1430 | 83 |  |  |  | Cc1cc(-c2ccc3c4c([nH]c3c2F)-c2ccc(C(N)=O)cc2OC4)ccc1F
11 | 376 | 90 |  |  |  | CCCCc1ccc(-c2ccc3c4c([nH]c3c2F)-c2cc(NC(C)=O)c(C(=O)O)cc2C4)cc1

The next lines start with the compound.

Row | Structure (SMILES) | EC50 (Thrombopoietin receptor) [nM] | Efficacy [1] [%] | Efficacy [2] [%] | EC50 [3] [nM] | EC50 [4] [nM]
12 | CCCCc1ccc(-c2ccc3cc(-c4ccc(C(N)=O)cc4)[nH]c3c2F)cc1 | 160 | 81 |  |  | 
13 | CCCCc1ccc(-c2ccc3nc(-c4ccc(C(=O)O)cc4)[nH]c3c2)cc1 | 1260 | 83 |  |  | 
14 | CCCCc1ccc(-c2ccc3c4c([nH]c3c2)-c2ccc(C(=O)O)cc2CCC4)cc1 |  |  | 71 | 332 | 
15 | CCCCc1ccc(-c2ccc3c4c([nH]c3c2)-c2ccc(C(=O)O)cc2C4)cc1 | 160 | 91 |  |  | 
16 | CCCCc1ccc(-c2ccc3cc(-c4ccc(C(=O)O)cc4)[nH]c3c2F)cc1 | 117 | 112 |  |  | 
17 | CCCCc1ccc(-c2ccc3c4c([nH]c3c2)-c2ccc(C(=O)O)cc2S(=O)(=O)C4)cc1 | 449 | 115 |  |  | 
18 | CCCCc1ccc(-c2ccc3c4c([nH]c3c2F)-c2ccc(NS(C)(=O)=O)cc2C4)cc1 |  |  | 95 | 166 | 
19 | CCCCc1ccc(-c2ccc3c4c([nH]c3c2)-c2ccc(C(=O)O)cc2CC4)cc1 | 111 |  |  |  | 
20 | CCCCc1ccc(-c2ccc3c(C)c(-c4ccc(C(=O)O)c(O)c4)[nH]c3c2F)cc1 | 116 | 119 |  |  | 
21 | CCCCc1ccc(-c2ccc3c(C(C)C)c(-c4ccc(C(=O)O)c(O)c4)[nH]c3c2F)cc1 | > 1000 | 70 |  |  | 
22 | CCCCc1ccc(-c2ccc3c4c([nH]c3c2F)-c2ccc(C(=O)O)cc2C4(C)C)cc1 | 111 | 118 |  |  | 
23 | CC1=NN(c2ccc(C)c(C)c2)C(=O)/C1=N\Nc1cccc(-c2cccc(C(=O)O)c2)c1O [ELTROMBOPAG] | 38 | 127 |  |  | 
24 | CCCCc1ccc(-c2ccc3nc(-c4ccc(C(=O)O)c(O)c4)[nH]c3c2)cc1 | 179 | 121 |  |  | 
25 | CCCCc1ccc(-c2ccc3c4c([nH]c3c2)-c2ccc(C(N)=O)cc2C4)cc1 | 86 | 118 |  |  | 
26 | CCCCc1ccc(-c2ccc3cc(-c4ccc(C(=O)O)c(O)c4)[nH]c3c2F)cc1 | 51 | 141 |  |  | 
27 | CCCCc1ccc(-c2ccc3c(CC)c(-c4ccc(C(=O)O)c(O)c4)[nH]c3c2F)cc1 | 228 | 97 |  |  | 
